Experiments:
[1] = tested on: neuronal cells infected with LV-SYN; test: FLIPR assay of Ca++ levels (Flou-4) in neuronal cells infected with LV-SYN; assay type: cell-based
[2] = tested on: neuronal cells infected with LV-SYN; test: neurite outgrowth (MAP2 antibody) in neuronal cells expressing high levels of SYN; assay type: cell-based; details: 0.1 μM; FIG. 6
Protocol: For the neuronal cell based assays, the neuroblastoma line B103 will be used. […] To infect the neural cells with LV vectors, multiples of infections (MOI) of 0.1, 1 or 5 (based on TU/ml on 293T cells) will be used. After 4-5 days in vitro, the % of transgene-expressing cells will be analyzed. The B103 cells will be maintained at 37° C., 5% CO2 in Dulbecco's modified eagle medium (DMEM, high glucose) supplemented with 10% fetal bovine serum (Irvine Scientific, Irvine, Calif.) and 1% v/v penicillin/streptomycin. For analysis of SYN aggregation cell homogenates will be analyzed by immunoblot with antibodies against SYN and in coverslips by immunocytochemistry. For evaluation of neurite outgrowth coverslips will be immunostained with an antibody against MAP2 and analyzed with a digital Olympus microscope and the Image Quant System.

CCCCNC(=O)C(Cc1c[nH]c2ccccc12)NC(=O)c1cnc(N2CCNCC2)s1 (stereo not drawn) [NPT200-5]
improvement of Ca++ levels ([1]; 0.1 μM concentration): 50% | levels of Ca++ after treatment ([1]; 24 hrs treatment, LV-SYN cells showed 25-30% higher Ca++ than empty vector control, FIG. 7): back to baseline | effect on neurite length extension and cellular morphology [2]: ameliorated the deleterious effects on neurite length extension and improved cellular morphology

From US8846682B2, “Compound suitable for the treatment of synucleopathies” (Neuropore Therapies, Inc., priority 2009, dated 2014)
